Measurements published in publication PMC11224403, “Des-acyl ghrelin reduces alcohol intake and alcohol-induced reward in rodents” (Translational Psychiatry, 2024).

Legend:
SERT = experiment: Transporter inhibition in recombinant cell line, SERT; assay type: cell-based, human; conditions: 8.3 µM DAG; recombinant cells, 3 h incubation, fluorescence dye
[1] = tested on: feeding and ghrelin-induced responses; conditions: cited from earlier work
Source text: DAG can be found in the plasma after ghrelin is secreted from the gastrointestinal tract and subsequently deacetylated in the serum. […] Based on these findings and given that ghrelin has a prominent role in mediating alcohol-related responses, we hypothesize that DAG decreases such effects in rodents.

dopamine in NAc shell = experiment: In vivo microdialysis, dopamine release in NAc shell; set-up: species or system Wistar rats; conditions: n = 8 per group
Source text: Male and female Rcc Han Wistar rats (8–12 weeks old at arrival; Envigo, Horst, Netherlands) were used for the alcohol drinking and locomotor activity experiments as they drink alcohol to intoxicating levels. For in vivo microdialysis studies male Wistar rats (Charles River, Calco, Italy) were used as they display robust dopamine levels in NAc shell after alcohol injection. […] All rodents were allowed to habituate to the animal facility at least one week before they entered an experiment. […] The sample sizes of each experiment were based on previous experience in which statistical significance has been detected. The person who conducted the experiments, and analyzed the collected data was aware of the treatment allocation. Only preset exclusion criteria were used when analyzing the data obtained in attempts to exclude confounding factors in analyzing data. In the alcohol drinking experiments leaking bottles and low alcohol consumption (<3.0 g/kg for males; <3.5 g/kg for females) were preset exclusion criteria. The preset exclusion criterion in the ex vivo HPLC-EC, ELISA, and recombinant cell line experiments was contamination of the sample. Misplaced probes, technical difficulties, and damages to the surgery area were preset exclusion criteria for the in vivo microdialysis experiment. Intra-cage male aggression was the preset exclusion criterion for the locomotor activity and CPP experiments. To minimize tentative confounding factors, the order of treatments was stratified, with treatments being mixed for each animal cage and for each apparatus used as well as balancing the alcohol intake between future treatment groups. […]
The data from drinking experiments were analyzed by unpaired t-test or repeated two-way ANOVA. A two-tailed unpaired t-test analyzed the ELISA, ex vivo HPLC-EC, and cFOS data. […] A one-way ANOVA with Bonferroni post hoc tests and unpaired t-test analyzed the locomotor activity and CPP data, respectively. The in vivo microdialysis experiments were evaluated by a repeated two-way ANOVA followed by the Bonferroni post hoc test.

[2] = tested on: monoaminergic neurotransmission in VTA and other brain areas; experiment: Ex vivo monoamine content (HPLC-EC) in brain areas of alcohol-drinking rats after repeated DAG; set-up: species or system Rcc Han Wistar rats
Source text: Male and female Rcc Han Wistar rats (8–12 weeks old at arrival; Envigo, Horst, Netherlands) were used for the alcohol drinking and locomotor activity experiments as they drink alcohol to intoxicating levels. For in vivo microdialysis studies male Wistar rats (Charles River, Calco, Italy) were used as they display robust dopamine levels in NAc shell after alcohol injection. […] All rodents were allowed to habituate to the animal facility at least one week before they entered an experiment. During housing (20 °C with 50% humidity) the rodents had free access to water and standard chow (Teklad Rodent Diet; Envigo, Madison, WI, USA). These experiments were approved by the Ethics Committee for Animal Experiments (ethical numbers: 1457/18, 3276/18, 1556/18, 3348/20; Gothenburg, Sweden) and followed the ARRIVE guidelines. The sample sizes of each experiment were based on previous experience in which statistical significance has been detected. The person who conducted the experiments, and analyzed the collected data was aware of the treatment allocation. Only preset exclusion criteria were used when analyzing the data obtained in attempts to exclude confounding factors in analyzing data. In the alcohol drinking experiments leaking bottles and low alcohol consumption (<3.0 g/kg for males; <3.5 g/kg for females) were preset exclusion criteria. The preset exclusion criterion in the ex vivo HPLC-EC, ELISA, and recombinant cell line experiments was contamination of the sample. Misplaced probes, technical difficulties, and damages to the surgery area were preset exclusion criteria for the in vivo microdialysis experiment. Intra-cage male aggression was the preset exclusion criterion for the locomotor activity and CPP experiments. To minimize tentative confounding factors, the order of treatments was stratified, with treatments being mixed for each animal cage and for each apparatus used as well as balancing the alcohol intake between future treatment groups. Although each experiment only was performed once, they were separated over different laboratory days with equal data obtained between sessions.
Individually housed rats had intermittent access to an alcohol (20%) bottle and a water bottle, three 24-h sessions per week, and only water bottles the remaining days. A reversed light/dark cycle was used, and the bottles were changed when the lights went out. First, the rats consumed alcohol for 10 weeks (baseline drinking), where the bottles and food were weighed daily and the body weight weekly. During treatments, the bottles and food were weighed at 4- and/or 24-h and the body weight was measured daily. In the first drinking experiment, the potential of DAG to reduce alcohol consumption was tested and therefore, vehicle or DAG (1 mg/kg) was acutely injected into male (n = 12) or female (n = 12) rats. The second drinking experiment was conducted to establish the effects of lower DAG doses on alcohol intake. Therefore, separate male (n = 18) or female (n = 18) rats, were acutely injected with lower DAG doses (0.5 or 0.25 mg/kg) or vehicle. The third alcohol drinking experiment evaluated the ability of repeated DAG injections to lower alcohol drinking. Therefore, additional male (n = 24) and female (n = 24) rats were injected with either vehicle or DAG (1 mg/kg) at three alcohol-drinking sessions. At the end of the third drinking session, the rats were euthanized and decapitated, and the brains were placed in a brain-slicing matrix. Brain areas central for reward (VTA, NAc shell, NAc core, LDTg, dorsal striatum, hippocampus, paraventricular thalamus, prefrontal cortex, central amygdala) were punched and stored at −80 °C. Each sample was homogenized, and then the monoamine content in the supernatant was analyzed in an HPLC-EC system as described before, allowing tentative determination of brain regions, directly or indirectly, affected by DAG.
The obtained data are normally distributed and with equal variance. […]

[3] = alcohol-drinking female rats, repeated DAG n = 7 vs vehicle n = 9
[4] = alcohol-drinking male rats, repeated DAG n = 8 vs vehicle n = 7

With “des-acyl ghrelin (GSSFLSPEHQRVQQRKESKKPPAKLQPR; Ghrelin-28 non-acylated; UniProt Q9UBU3 24-51, looked up) [DAG, non-octanoylated form of ghrelin; purchased from Tocris (printed Tocrise Bioscience), dissolved in 0.9% NaCl]” as the substance, how does the “inhibition of SERT” value (SERT) read?
The value was “no inhibition”.

And the “effects of ghrelin on feeding, gastric emptying, body temperature, glucose and lipid metabolism” value ([1]; ref [30–34])?
Its value is “blocks the effects of ghrelin on feeding, gastric emptying, body temperature, and glucose and lipid metabolism”.

And the food intake ([1]; ref [32])?
Its food intake is “decrease food intake”.

What about the “dopamine in NAc shell, DAG per se” value (dopamine in NAc shell; DAG 1 mg/kg without alcohol) of the same substance?
Its value is “did not affect dopamine in the NAc shell per se”.

What about the “alcohol-induced dopamine release in NAc shell (effect of DAG)” value (dopamine in NAc shell; male rats (methods), DAG 1 mg/kg plus alcohol vs vehicle-alcohol) of the same substance?
The value was “suppressed this enhancement (40 min P = 0.0396, 80 min P < 0.0001, 160 min P = 0.0400, 200 min P = 0.0010, 220 min P = 0.0458)”.

And the “ex vivo DOPAC level, VTA” value [2, 3]?
Its value is “did not change the levels of D DOPAC (t14 = 0.41, P = 0.6904)”.

And the “ex vivo HVA level, VTA” value [2, 3]?
Its value is “did not change the levels of D DOPAC (t14 = 0.41, P = 0.6904), E HVA (t14 = 0.66, P = 0.5196)”.

And the “ex vivo dopamine level, VTA” value [2, 3]?
Its value is “did not change the levels of D DOPAC (t14 = 0.41, P = 0.6904), E HVA (t14 = 0.66, P = 0.5196), or F dopamine (t14 = 0.12, P = 0.9080)”.

What about the “dopamine turnover, 5-HIAA, serotonin and serotonin turnover, VTA” value ([2]; alcohol-drinking male or female rats, repeated DAG) of the same substance?
Its value is “neither affected the dopamine turnover, 5-hydroxy indole acetic acid (5-HIAA), serotonin, nor serotonin turnover”.

What about the “ex vivo noradrenaline level, VTA” value ([2]; alcohol-drinking male rats, repeated DAG) of the same substance?
Its value is “tended to elevate the ex vivo noradrenaline levels in this area of male rats (Supplementary Fig. 4E, P = 0.0819)”.

What about the “ex vivo DOPAC level, VTA” value [2, 4] of the same substance?
Its value is “increased the ex vivo levels of A DOPAC (t13 = 2.94, P = 0.0116)”.

What about the “ex vivo HVA level, VTA” value [2, 4] of the same substance?
The value was “increased the ex vivo levels of A DOPAC (t13 = 2.94, P = 0.0116) and B HVA (t13 = 3.00, P = 0.0102)”.

What about the “ex vivo dopamine level, VTA” value [2, 4] of the same substance?
Its value is “tended to elevate the dopamine levels (t13 = 1.72, P = 0.1091)”.

And the “monoaminergic neurotransmission in other brain areas” value ([2]; males and females, repeated DAG, central amygdala, hippocampus, laterodorsal tegmental area, NAc core and shell, prefrontal cortex, paraventricular thalamus, striatum, data not shown)?
Its value is “Neither in males nor females, DAG altered the monoaminergic neurotransmission”.
